Where two headings read alike, the source gives them in different places.

As usually defined, the inhibition is the change of the read-out against control, counted positive when it falls.

Assay in all cases: SelectScreen Z-LYTE kinase activity assay (SI Table 6)
Format in all cases: biochemical

The target in test [1] is protein kinases of the Z-LYTE panel (Homo sapiens, UniProt Q16539). An outline of the steps: (§1)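 A counterscreen of 133 protein and 7 lipid kinases was run with one compound concentration, 1 μM 1938, in SelectScreen Adapta, Lantha or Z-LYTE assays.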
Sequence of protein kinases of the Z-LYTE panel (Homo sapiens, UniProt Q16539) (Q16539 whole entry): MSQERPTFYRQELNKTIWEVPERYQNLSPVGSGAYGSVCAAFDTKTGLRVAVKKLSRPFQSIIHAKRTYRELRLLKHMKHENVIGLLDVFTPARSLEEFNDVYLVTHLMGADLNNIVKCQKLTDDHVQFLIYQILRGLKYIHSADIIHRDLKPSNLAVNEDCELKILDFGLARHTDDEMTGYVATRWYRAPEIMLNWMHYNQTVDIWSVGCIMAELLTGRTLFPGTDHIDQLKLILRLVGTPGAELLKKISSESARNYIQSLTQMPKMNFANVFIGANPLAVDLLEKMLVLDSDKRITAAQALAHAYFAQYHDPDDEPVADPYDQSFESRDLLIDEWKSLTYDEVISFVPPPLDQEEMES
The target in test [2] is T1, protein kinases of the Z-LYTE panel (Homo sapiens, UniProt P51955).
T1 sequence (P51955 1-445): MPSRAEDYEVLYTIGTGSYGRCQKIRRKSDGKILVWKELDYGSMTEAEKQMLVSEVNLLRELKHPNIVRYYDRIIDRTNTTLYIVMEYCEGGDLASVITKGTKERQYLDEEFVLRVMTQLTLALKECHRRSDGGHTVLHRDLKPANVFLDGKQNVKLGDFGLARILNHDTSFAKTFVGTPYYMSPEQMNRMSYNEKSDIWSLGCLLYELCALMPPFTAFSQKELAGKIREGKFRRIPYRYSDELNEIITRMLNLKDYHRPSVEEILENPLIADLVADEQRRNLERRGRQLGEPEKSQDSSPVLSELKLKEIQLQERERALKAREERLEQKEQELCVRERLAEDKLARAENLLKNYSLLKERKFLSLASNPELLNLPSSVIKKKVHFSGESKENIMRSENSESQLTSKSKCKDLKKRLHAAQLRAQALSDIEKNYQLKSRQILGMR
An outline of the steps:
as §1

The target in test [3] is T2, protein kinases of the Z-LYTE panel (Homo sapiens, UniProt O14757).
T2 sequence (O14757 1-476): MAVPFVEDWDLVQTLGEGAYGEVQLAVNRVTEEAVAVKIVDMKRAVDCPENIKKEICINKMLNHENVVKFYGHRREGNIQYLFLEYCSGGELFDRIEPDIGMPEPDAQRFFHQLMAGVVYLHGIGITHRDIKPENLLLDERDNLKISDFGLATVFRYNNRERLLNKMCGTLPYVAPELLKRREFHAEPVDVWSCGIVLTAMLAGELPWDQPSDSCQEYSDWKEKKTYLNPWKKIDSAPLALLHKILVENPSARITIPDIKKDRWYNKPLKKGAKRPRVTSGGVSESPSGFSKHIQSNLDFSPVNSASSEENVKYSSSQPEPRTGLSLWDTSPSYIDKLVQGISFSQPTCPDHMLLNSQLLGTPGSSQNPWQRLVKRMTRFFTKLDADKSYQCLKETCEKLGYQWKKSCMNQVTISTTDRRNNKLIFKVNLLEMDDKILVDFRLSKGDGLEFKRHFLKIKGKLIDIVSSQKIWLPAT
In a few lines:
as §1

Test [4] addresses T3, protein kinases of the Z-LYTE panel (Homo sapiens, UniProt P30530).
T3 sequence (P30530 26-894): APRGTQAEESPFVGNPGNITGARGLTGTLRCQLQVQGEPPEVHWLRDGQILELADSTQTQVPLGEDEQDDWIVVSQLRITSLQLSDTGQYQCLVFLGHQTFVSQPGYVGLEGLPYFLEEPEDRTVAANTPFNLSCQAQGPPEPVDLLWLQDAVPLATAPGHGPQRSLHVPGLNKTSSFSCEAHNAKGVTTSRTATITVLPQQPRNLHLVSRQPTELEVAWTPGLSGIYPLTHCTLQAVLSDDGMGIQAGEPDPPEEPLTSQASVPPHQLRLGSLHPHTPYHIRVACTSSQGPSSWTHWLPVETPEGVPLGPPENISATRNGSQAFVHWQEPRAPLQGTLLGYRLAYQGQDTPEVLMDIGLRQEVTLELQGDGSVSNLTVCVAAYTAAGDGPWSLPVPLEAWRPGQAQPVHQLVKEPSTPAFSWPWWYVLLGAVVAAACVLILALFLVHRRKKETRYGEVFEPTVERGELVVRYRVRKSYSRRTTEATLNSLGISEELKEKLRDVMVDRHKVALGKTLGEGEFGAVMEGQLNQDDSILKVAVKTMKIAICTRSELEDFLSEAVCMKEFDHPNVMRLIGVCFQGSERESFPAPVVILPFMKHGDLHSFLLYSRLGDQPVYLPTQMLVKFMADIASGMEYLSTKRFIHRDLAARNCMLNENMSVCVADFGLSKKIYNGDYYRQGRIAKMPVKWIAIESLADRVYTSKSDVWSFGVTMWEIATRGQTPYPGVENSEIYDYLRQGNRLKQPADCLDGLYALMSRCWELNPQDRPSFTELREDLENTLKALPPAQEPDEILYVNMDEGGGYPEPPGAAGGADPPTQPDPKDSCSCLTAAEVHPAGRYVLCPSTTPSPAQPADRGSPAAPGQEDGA
An outline of the steps:
as §1

In the case of `CCN1CCN(c2ccc(Nc3cc(Nc4cccc5c4N(C(C)=O)CC5)ccn3)cc2)CC1` [Compound 1938], the inhibition at 1 µM in test [1] (read-out: % Inhibition Point 1) is 9%; in test [1] (read-out: % Inhibition Point 2), 9%; in test [1] (read-out: % Inhibition mean), 9%; in test [2] (read-out: % Inhibition Point 1) it was -6%; in test [2] (read-out: % Inhibition Point 2), -5%; in test [2] (read-out: % Inhibition mean), -5.54%. Further, the inhibition at 1 µM in test [3] (read-out: % Inhibition Point 1) is 2%; in test [3] (read-out: % Inhibition Point 2), -3.79%; in test [3] (read-out: % Inhibition mean), -0.889%; in test [4] (read-out: % Inhibition Point 1) it was 7%; in test [4] (read-out: % Inhibition Point 2), 8%; in test [4] (read-out: % Inhibition mean), 7.4%.
